According to patent US12018058B2, “Compositions and methods for diagnosing and/or treating kidney injury” (Boston Medical Center Corporation, priority 2018, dated 2024):
Where two headings read alike, the source gives them in different places. Square brackets hold non-standard residues; d marks the D form. Peptide text beside a SMILES is read from it. βAla = NCCC(=O)O

Key:
primary human PTECs = assay type: cell-based; design: Improvement in cell survival: dose or concentration left out as unconfirmed; conditions: for Cell survival after ischemic stress: PTECs, ATP depletion, versus control peptide
Procedure: Exposure to metabolic inhibitors is an established model of ischemic stress that reduces ATP content to, 10% of baseline values until recovery is initiated.24,26 To achieve ATP depletion, cells were washed three times in glucose-free DMEM (Invitrogen, Carlsbad, CA) followed by incubation in glucose-free DMEM containing sodium cyanide (5 mM) and 2-deoxy-glucose (5 mM) for the indicated times.26
Recovery was initiated by replacing the stress medium described above with complete primary cell culture medium containing glucose and substrates that support the rapid restoration of cell ATP.27
For in vitro testing in primary human PTECs, peptides ([…]) were tested that replicate the Bax domain responsible for binding NPM,34 or two peptides designed to interfere with NPM function were compared with a random nonspecific sequence of the same length (control). Peptides intended to interfere with NPM function overlap key phosphorylation sites located at the NPM amino terminus (peptide 2) or carboxy terminus (peptide 3) detected by mass spectrometry. To improve cell uptake, all peptides contained a cell-penetrating sequence13. For in vivo experiments, a renal-targeting sequence (NLS) was added to enhance renal peptide uptake.35 Peptides were commercially synthesized (Biomatik, Wilmington, DE) J Am Soc Nephrol 30: ccc-ccc, 2018 Nucleophosmin in AKI 3www.jasn.org BASIC RESEARCHas follows: NPM-Bax blocking peptide: Ac-KKKRKV-(bA)-[…]-COOH (SEQ ID NO: 8); peptide 2: AC-PKKKRKV-(bA)-[…]-COOH (SEQ ID NO: 9); and peptide 3: AC-PKKKRKV-(bA)-ESFKK-QEKTPKTPKGPSSVED-IKAK-COOH (SEQ ID NO: 10). A single dose ([…] of the NPM-Bax blocking or control peptide) was administered by tail vein injection immediately after release of the pedicle clamps(0 timepoint) […] in each experimental group. A total of 42 control and 56 experimental animals were studied.
Transient exposure to metabolic inhibitors replicates ischemia in vivo by activating Bax and causing cell death.13,29,36-38 Cell viability was assayed using a modified colorimetric technique (MTTassay).37 The number of surviving cells is expressed as a percentage of viable control cells detected at baseline. Serum BUN and creatinine levels were measured in tail vein blood samples for 7 days after ischemia using QuantiChrom BUN or creatinine assay kits (BioAssay Systems, Hayward, CA) according to the manufacturer's instructions.

NPM-Bax complex = target: T1, NPM-Bax complex (Mus musculus, UniProt Q61937); assay: NPM-Bax interaction, Bax immunoprecipitates from renal cortical homogenates after ischemia; assay type: in vivo, murine; conditions: for Bax-NPM interaction in postischemic renal homogenates: peptide injected 3 hours after bilateral renal ischemia, FIG. 9B
T1 construct: from tissue; host or cells: renal cortical homogenate of C57BL/6J mice after bilateral renal pedicle clamping
T1 sequence (Q61937 whole entry, one chain of several): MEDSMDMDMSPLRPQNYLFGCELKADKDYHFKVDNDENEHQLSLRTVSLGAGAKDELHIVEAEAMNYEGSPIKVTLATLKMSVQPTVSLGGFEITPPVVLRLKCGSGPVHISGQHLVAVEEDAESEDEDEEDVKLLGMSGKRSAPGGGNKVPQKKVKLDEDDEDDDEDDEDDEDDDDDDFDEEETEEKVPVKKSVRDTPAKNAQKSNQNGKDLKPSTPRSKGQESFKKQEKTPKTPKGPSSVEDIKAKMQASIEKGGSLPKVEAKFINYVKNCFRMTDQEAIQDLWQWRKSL
Procedure: Similar amounts of Bax were detected in each lane, and input protein amounts for each sample were identical. IB, immunoblot; IP, immunoprecipitation.
Cell, tissue, and urinary proteins were harvested using PD buffer containing 40 mM Tris-HCl, pH 8.0, 500 mM NaCl, 0.1% Nonidet P-40, 6 mM EGTA, and a protease inhibitor cocktail (Set I; Calbiochem, San Diego, CA). NPM was immunoprecipitated overnight with NPM antibodies (catalog no. B0556; Sigma-Aldrich) in the presence of protein A/G-agarose beads at 4° C. NPM accumulation was measured in cytosolic samples extracted with low-dose digitonin ([…]).13 Cytosolic proteins were extracted from renal cortical tissue samples using an extraction kit (Biochain Institute, Newark, CA). Briefly, 50-100 mg of kidney cortex tissue was minced on ice and spin washed with 1 ml ice-cold wash buffer before adding […] of buffer C. The mixture was rotated at 4° C. for 20 minutes and then centrifuged at 18,0003 g at 4° C. for 20 minutes before being harvested. Protein levels were measured with the bicinchoninic acid assay (Thermo Scientific, Rockford, IL).
NPM is a relevant therapeutic target in human AKI. Primary human proximal tubule epithelial cells (PTEC) derived from cadaveric kidneys were subjected to ischemic stress (transient ATP depletion) in the presence of specific NPM siRNA or non-sense siRNA. […] Thus, manipulating NPM is an effective maneuver. […] Small peptides of 30 amino acids or less are sufficiently specific to minimize off target effects and also reduce the risk of eliciting an antibody response that causes tachyphylaxis. Peptides were commercially synthesized and fused to a nuclear localizing sequence (this NLS has no functional relationship to the “NPM NLS” that regulates NPM translocation). The NLS-CPP markedly increases renal accumulation of small peptides8 as well as in the proximal tubule. […] To determine its effect on NPM-Bax complex formation, active Bax was immunoprecipitated from PTEC rendered ischemic with an antibody directed against the 6A7 epitope. The precipitates were subjected to immunoblot analysis using an anti-NPM antibody. […] NPM and Bax accumulation was measured in mitochondria isolated from human PTEC after ischemic stress. […] This is likely due to the prolonged half-life (about 80 hr) of the peptide in vitro and in vivo due to the presence of an AC modification slows degradation.

[1] = Peptide half-life in vitro and in vivo

## CC[C@H](C)[C@H](NC(=O)[C@@H](NC(=O)[C@H](CC(C)C)NC(=O)[C@H](CO)NC(=O)[C@H](C)NC(=O)[C@@H](NC(=O)[C@H](CC(C)C)NC(=O)[C@@H](NC(=O)CNC(=O)[C@H](C)NC(=O)[C@@H](NC(=O)[C@H](Cc1ccccc1)NC(=O)[C@@H](NC(=O)[C@@H](NC(=O)[C@@H](NC(=O)[C@@H](NC(=O)CCNC(=O)[C@@H](NC(=O)[C@H](CCCCN)NC(=O)[C@H](CCCNC(=N)N)NC(=O)[C@H](CCCCN)NC(=O)[C@H](CCCCN)NC(=O)[C@H](CCCCN)NC(C)=O)C(C)C)[C@@H](C)O)C(C)C)[C@@H](C)O)[C@@H](C)CC)C(C)C)C(C)C)[C@@H](C)O)[C@@H](C)O)C(=O)N[C@@H](Cc1c[nH]c2ccccc12)C(=O)N[C@@H](CCCCN)C(=O)N[C@@H](CCCCN)C(=O)N[C@@H](CCSC)C(=O)NCC(=O)O [Peptide #1] (Ac-KKKRKV[βAla]TVTIFVAGVLTASLTIWKKMG-OH)
Primary human PTECs
  Improvement in cell survival: 25%
Primary human PTECs; listed as Bax peptide
  Cell survival after ischemic stress: significantly improve cell survival
Primary human PTECs; listed as NPM blocking peptide
  Cell survival after ischemic stress: improves renal cell survival
NPM-Bax complex; after ischemia by pedicle clamping
  Decrease of NPM-Bax complex formation in vivo (renal cortical homogenates): about 50%
NPM-Bax complex
  Bax-NPM interaction in postischemic renal homogenates: markedly decreases
NPM-Bax complex; listed as Blocking peptide
  Bax-NPM interaction in postischemic renal homogenates: markedly reduced
NPM-Bax complex; listed as NPM-Bax blocking peptide (Peptide #1)
  Bax-NPM interaction in postischemic renal homogenates: decreases
[1]
  half-life: ~80 h
